Source: patent publication US12234504B1 (priority 2023, dated 2025)

Legend:
[1] = tested on: human DNA topoisomerase IIα; test: Fluorescence-based DNA cleavage assay for human DNA topoisomerase IIα (T5 exonuclease digestion, SYBR Green staining); type: biochemical; details: 50 μM etoposide, […] human TopoIIα, FIG. 8C
Experimental: (§1) FIGS. 8A-8C. […] Fluorescence intensity was measured using a Biotek microplate reader with excitation wavelength of 497 nm and emission wavelength of 525 nm.

[2] = tested on: human DNA topoisomerase IIα; test: Agarose gel-based human DNA topoisomerase IIα mediated DNA cleavage assay; type: biochemical; details: 50 μM etoposide, increasing topoisomerase IIα, FIG. 8A
Experimental: as §1
DNA Gyrase and Human DNA Topoisomerase IIα Mediated DNA Cleavage Assay.
250 ng of relaxed plasmid pBR322 and 20 nM of E. coli DNA gyrase or human DNA topoisomerase IIα were mixed and incubated in 1×gyrase-mediated DNA cleavage buffer (20 mM Tris-HCl pH 8, 50 mM KAc, 10 mM MgCl2, 2 mM DTT, 1 mM ATP, 0.1 mg/mL BSA) at 37° C. for 15 minutes in the presence of an inhibitor or compound. After the incubation, 0.2% SDS and 0.1 mg/ml proteinase K were added to the reaction mixtures to trap the topoisomerase-inhibitor-DNA complex and digest the topoisomerase, respectively, by incubating for an additional 30 min at 37° C. DNA samples were analyzed in 1% agarose gel containing […] ethidium bromide in 1′TAE buffer and photographed under UV light. […] Etoposide was used as a positive control for human DNA topoisomerase IIα-mediated DNA cleavage assays.

SMILES: COc1cc([C@@H]2c3cc4c(cc3[C@@H](O[C@@H]3O[C@@H]5CO[C@@H](C)O[C@H]5[C@H](O)[C@H]3O)[C@H]3COC(=O)[C@H]23)OCO4)cc(OC)c1O [etoposide]
- fluorescence difference between presence and absence of compound (in words) [1]: significant fluorescence difference
- linear and nicked plasmid DNA products (in words) [2]: progressive increase in the linear and nicked plasmid DNA products
